Our source for the Ki, IC50 and inhibition values is patent publication US20110166121A1 (LG LIFE SCIENCES LTD., priority 2008, published 2011).

Read-outs that look alike come from different tables or passages of the source. Some results are limits rather than exact numbers.

Assay [1] deals with Human platelet aggregation caused by ADP. Put plainly: Inhibition of ADP-induced platelet aggregation (Mimic-human PRP). In kind it is cell-based. To be noted: 20 μM ADP; for Ki: human platelet concentrate diluted with PPP, absorption at 595 nm. The method, boiled down: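 Ki came from non-linear sigmoidal fits of inhibition, measured as the 3-min rise in absorbance at 595 nm after 20 μM ADP, relative to 0/20 μM ADP controls. Platelets (3–4×10^8/mL in PPP-diluted human PRP) were exposed to 0.01–30 μM compound for 20 min at room temperature beforehand.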

The target of the next assay is T1, Human P2Y12 receptor (Homo sapiens, UniProt Q9H244).
T1 construct: expressed in transfected cells; host or cells: HEK cells
T1 sequence (Q9H244 whole entry): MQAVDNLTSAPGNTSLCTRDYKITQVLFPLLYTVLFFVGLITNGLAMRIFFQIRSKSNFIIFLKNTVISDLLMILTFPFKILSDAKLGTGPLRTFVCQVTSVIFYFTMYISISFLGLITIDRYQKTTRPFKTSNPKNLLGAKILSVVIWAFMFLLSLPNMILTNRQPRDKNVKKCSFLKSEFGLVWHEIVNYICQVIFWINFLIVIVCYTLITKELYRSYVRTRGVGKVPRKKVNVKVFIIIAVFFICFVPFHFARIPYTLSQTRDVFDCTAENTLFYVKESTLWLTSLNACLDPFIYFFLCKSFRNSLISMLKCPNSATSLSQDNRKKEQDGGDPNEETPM
Put plainly: Human P2Y12 receptor cell membrane binding assay with [3H] 2-Mes-ADP. The method, boiled down:
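Competition binding used 1 nM [3H]2-MeS-ADP on P2Y12-expressing HEK cell membranes for 1 h at room temperature, followed by filtration and scintillation counting.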

[2] abbreviates: 1 nM [3H] 2-Mes-ADP, membranes of HEK cells expressing P2Y12 receptor, read-out: Binding activity (IC50).

`CCCc1cc2c(N3CCn4c(nnc4C(F)(F)F)C3)nc(Oc3ccc(OCC(=O)OC)cc3)nc2s1` [Example 3-43, {4-[6-Propyl-4-(3-trifluoromethyl-5,6-dihydro-8H-[1,2,4]triazolo[4,3-a]pyrazin-7-yl)-thieno[2,3-d]pyrimidin-2-yloxy]-phenoxy}-acetic acid methyl ester]: the Ki in assay [1] is more than 4000 nM. At Human P2Y12 receptor (setting [2]), the IC50 came to 650 nM.

On to `CCCCc1cc2c(N3CCn4c(nnc4C(F)(F)F)C3)nc(NCCO)nc2s1` [Example 2-15, 2-[6-Butyl-4-(3-trifluoromethyl-5,6-dihydro-8H-[1,2,4]triazolo[4,3-a]pyrazin-7-yl)-thieno[2,3-d]pyrimidin-2-ylamino]-ethanol], for which the Ki in assay [1] was found to be 223 nM. For the same compound, the IC50 on Human P2Y12 receptor (setting [2]) stood at 240 nM.

For `CCCc1cc2c(N3CCn4c(nnc4C(F)(F)F)C3)nc(OCc3ccccc3)nc2s1` [Example 3-16, 7-(2-Benzyloxy-6-propyl-thieno[2,3-d]pyrimidin-4-yl)-3-trifluoromethyl-5,6,7,8-tetrahydro-[1,2,4]triazolo[4,3-a]pyrazine], the affinity in assay [1] corresponds to a Ki of 27600 nM. Moreover, at Human P2Y12 receptor (setting [2]), the IC50 came to 39 nM.

As for `O=C1CN(c2nc(N3CCn4c(nnc4C(F)(F)F)C3)c3cc(CCC(F)(F)F)sc3n2)CCN1` [Example 2-19, 4-[4-(3-Trifluoromethyl-5,6-dihydro-8H-[1,2,4]triazolo[4,3-a]pyrazin-7-yl)-6-(3,3,3-trifluoro-propyl)-thieno[2,3-d]pyrimidin-2-yl]-piperazin-2-one], the inhibitory constant (Ki) in assay [1] amounted to 550 nM. In addition, on Human P2Y12 receptor (setting [2]), the IC50 is 362 nM.

Regarding `CCCc1cc2c(N3CCn4c(nnc4C(F)(F)F)C3)nc(N3CCC(C(=O)NS(=O)(=O)Cc4ccccc4)CC3)nc2s1` [Example 1-127, C-Phenyl-N-{1-[6-propyl-4-(3-trifluoromethyl-5,6-dihydro-8H-[1,2,4]triazolo[4,3-a]pyrazin-7-yl)-thieno[2,3-d]pyrimidin-2-yl]-piperidine-4-carbonyl}-methanesulfonamide], the inhibition constant (Ki) in assay [1] was found to be 900 nM. Moreover, the concentration for half-maximal inhibition (IC50) at Human P2Y12 receptor (setting [2]) is 100 nM.

In assay [1], `CCCc1cc2c(N3CCn4c(nnc4C(F)(F)F)C3)nc(N3CC[C@H](NCCO)C3)nc2s1` [Example 1-99, 2-{(S)-1-[6-Propyl-4-(3-trifluoromethyl-5,6-dihydro-8H-[1,2,4]triazolo[4,3-a]pyrazin-7-yl)-thieno[2,3-d]pyrimidin-2-yl]-pyrrolidin-3-ylamino}-ethanol] yielded a Ki of 43 nM. The IC50 at Human P2Y12 receptor (setting [2]) turned out to be 130 nM.

In turn, `CCCc1cc2c(N3CCn4c(nnc4C(F)(F)F)C3)nc(OCCC(=O)OCOC(=O)C(C)(C)C)nc2s1` [Example 3-13, 2,2-Dimethyl-propionic Acid 3-[6-propyl-4-(3-trifluoromethyl-5,6-dihydro-8H-[1,2,4]triazolo[4,3-a]pyrazin-7-yl)-thieno[2,3-d]pyrimidin-2-yloxy]-propionyloxymethyl ester] showed a Ki in assay [1] of 430 nM. For the same compound, the IC50 on Human P2Y12 receptor (setting [2]) stood at 410 nM.

For the compound `CCCc1cc2c(N3CCn4c(nnc4C(F)(F)F)C3)nc(NC3CCNC3)nc2s1` (stereo not drawn) [Example 1-98, [6-Propyl-4-(3-trifluoromethyl-5,6-dihydro-8H-[1,2,4]triazolo[4,3-a]pyrazin-7-yl)-thieno[2,3-d]pyrimidin-2-yl]-pyrrolidin-3-yl-amine], in assay [1], the Ki worked out at 32 nM. Besides, the IC50 on Human P2Y12 receptor (setting [2]) came out at 470 nM.

In assay [1], `CCCc1cc2c(N3CCn4c(nnc4C(F)(F)F)C3)nc(-c3nnc(COC)o3)nc2s1` [Example 4-35, 7-[2-(5-Methoxymethyl-[1,3,4]oxadiazol-2-yl)-6-propyl-thieno[2,3-d]pyrimidin-4-yl]-3-trifluoromethyl-5,6,7,8-tetrahydro-[1,2,4]triazolo[4,3-a]pyrazine] displayed an inhibitory constant (Ki) of 30 nM. The IC50 at Human P2Y12 receptor (setting [2]) worked out at 130 nM.

In assay [1], `CCCc1cc2c(N3CCn4c(nnc4C(F)(F)F)C3)nc(NC3CCCC3)nc2s1` [Example 1-31, Cyclopentyl-[6-propyl-4-(3-trifluoromethyl-5,6-dihydro-8H-[1,2,4]triazolo[4,3-a]pyrazin-7-yl)-thieno[2,3-d]pyrimidin-2-yl]-amine] displayed an inhibitory constant (Ki) of 7600 nM. Further, the IC50 at Human P2Y12 receptor (setting [2]) is 110 nM.

With `CCCc1cc2c(N3CCn4c(nnc4C(F)(F)F)C3)nc(N3CC[C@H](C(=O)O)C3)nc2s1` [Example 1-57, (S)-1-[6-Propyl-4-(3-trifluoromethyl-5,6-dihydro-8H-[1,2,4]triazolo[4,3-a]pyrazin-7-yl)-thieno[2,3-d]pyrimidin-2-yl]-pyrrolidine-3-carboxylic acid], the Ki in assay [1] was found to be 54 nM. For the same compound, on Human P2Y12 receptor (setting [2]), the IC50 is 15 nM.

With `CCCc1cc2c(N3CCn4c(nnc4C(F)(F)F)C3)nc(N3CCN(c4cccc(O)c4)CC3)nc2s1` [Example 1-39, 3-{4-[6-Propyl-4-(3-trifluoromethyl-5,6-dihydro-8H-[1,2,4]triazolo[4,3-a]pyrazin-7-yl)-thieno[2,3-d]pyrimidin-2-yl]-piperazin-1-yl}-phenol], the Ki in assay [1] worked out at 550 nM. The half-inhibitory concentration (IC50) on Human P2Y12 receptor (setting [2]) is 140 nM.

For `CCCc1cc2c(N3CCn4c(nnc4C(F)(F)F)C3)nc(OC3CCN(C)C3)nc2s1` (stereo not drawn) [Example 3-7, 7-[2-(1-Methyl-pyrrolidin-3-yloxy)-6-propyl-thieno[2,3-d]pyrimidin-4-yl]-3-trifluoromethyl-5,6,7,8-tetrahydro-[1,2,4]triazolo[4,3-a]pyrazine], the affinity in assay [1], expressed as Ki, was 300 nM. The IC50 on Human P2Y12 receptor (setting [2]) was determined as 540 nM.

In assay [1], `CCCc1cc2c(N3CCn4c(nnc4C(F)(F)F)C3)nc(-c3nc(CCO)no3)nc2s1` [Example 4-30, 2-{5-[6-Propyl-4-(3-trifluoromethyl-5,6-dihydro-8H-[1,2,4]triazolo[4,3-a]pyrazin-7-yl)thieno[2,3-d]pyrimidin-2-yl]-[1,2,4]oxadiazol-3-yl}ethanol] had a Ki of 830 nM. For the same compound, at Human P2Y12 receptor (setting [2]), the 50% inhibitory concentration (IC50) is 6500 nM.

`CCCc1cc2c(N3CCn4c(nnc4C(F)(F)F)C3)nc(N3CCN(C(=O)CO)CC3)nc2s1` [Example 1-9, 2-Hydroxy-1-{4-[6-propyl-4-(3-trifluoromethyl-5,6-dihydro-8H-[1,2,4]triazolo[4,3-a]pyrazin-7-yl)-thieno[2,3-d]pyrimidin-2-yl]-piperazin-1-yl}-ethanone]: the Ki in assay [1] stood at 500 nM. The IC50 at Human P2Y12 receptor (setting [2]) came out at 70 nM.

On to `CCc1cc2c(N3CCn4c(nnc4C(F)(F)F)C3)nc(N3CCNC(=O)C3)nc2s1` [Example 2-2, 4-[6-Ethyl-4-(3-trifluoromethyl-5,6-dihydro-8H-[1,2,4]triazolo[4,3-a]pyrazin-7-yl)-thieno[2,3-d]pyrimidin-2-yl]-piperazin-2-one], for which the affinity in assay [1] corresponds to a Ki of 832 nM. On Human P2Y12 receptor (setting [2]), the IC50 worked out at 97 nM.

`CCCc1cc2c(N3CCn4c(nnc4C(F)(F)F)C3)nc(NCC3CCN(Cc4ccccc4)C3)nc2s1` (stereo not drawn) [Example 1-11, (1-Benzyl-pyrrolidin-3-ylmethyl)-[6-propyl-4-(3-trifluoromethyl-5,6-dihydro-8H-[1,2,4]triazolo[4,3-a]pyrazin-7-yl)-thieno[2,3-d]pyrimidin-2-yl]-amine] came in with a Ki in assay [1] of 1380 nM. The half-inhibitory concentration (IC50) on Human P2Y12 receptor (setting [2]) amounted to 260 nM.

The compound `CCCc1cc2c(N3CCn4c(nnc4C(F)(F)F)C3)nc(OCc3nc(CC(=O)O)co3)nc2s1` [Example 3-19, {2-[6-Propyl-4-(3-trifluoromethyl-5,6-dihydro-8H-[1,2,4]triazolo[4,3-a]pyrazin-7-yl)-thieno[2,3-d]pyrimidin-2-yloxymethyl]-oxazol-4-yl}-acetic acid] had a Ki in assay [1] of more than 4000 nM. Also, the half-maximal inhibitory concentration (IC50) at Human P2Y12 receptor (setting [2]) worked out at 170 nM.

In the case of `CCCc1cc2c(N3CCn4c(nnc4C(F)(F)C(F)(F)F)C3)nc(NCCO)nc2s1` [Example 6-7, 2-[4-(3-Pentafluoroethyl-5,6-dihydro-8H-[1,2,4]triazolo[4,3-a]pyrazin-7-yl)-6-propyl-thieno[2,3-d]pyrimidin-2-ylamino]-ethanol], in assay [1], affinity was put at a Ki of 407 nM. The IC50 on Human P2Y12 receptor (setting [2]) came out at 490 nM.

Regarding `CCCc1cc2c(N3CCn4c(nnc4C(F)(F)F)C3)nc(OCC(CO)CO)nc2s1` [Example 3-2, 2-[6-Propyl-4-(3-trifluoromethyl-5,6-dihydro-8H-[1,2,4]triazolo[4,3-a]pyrazin-7-yl)-thieno[2,3-d]pyrimidin-2-yloxymethyl]-propane-1,3-diol], the affinity in assay [1] corresponds to a Ki of 17 nM. Moreover, the IC50 on Human P2Y12 receptor (setting [2]) was determined as 200 nM.

For the compound `CCCc1cc2c(N3CCn4c(nnc4C(F)(F)C(F)(F)F)C3)nc(OCCO)nc2s1` [Example 6-9, 2-[4-(3-Pentafluoroethyl-5,6-dihydro-8H-[1,2,4]triazolo[4,3-a]pyrazin-7-yl)-6-propyl-thieno[2,3-d]pyrimidin-2-yloxy]-ethanol], the inhibitory constant (Ki) in assay [1] came out at 30 nM. Besides, on Human P2Y12 receptor (setting [2]), the IC50 is 120 nM.

`CCCc1cc2c(N3CCn4c(nnc4C(F)(F)F)C3)nc(N3CC3C(=O)OC)nc2s1` (stereo not drawn) [Example 1-96, 1-[6-Propyl-4-(3-trifluoromethyl-5,6-dihydro-8H-[1,2,4]triazolo[4,3-a]pyrazin-7-yl)-thieno[2,3-d]pyrimidin-2-yl]-aziridine-2-carboxylic acid methyl ester] yielded a Ki in assay [1] of 21 nM. Moreover, the IC50 on Human P2Y12 receptor was determined as 630 nM.

`CCCc1cc2c(N3CCn4c(nnc4C(F)(F)C(F)(F)F)C3)nc(N3CCN(C)CC3)nc2s1` [Example 6-6, 7-[2-(4-Methyl-piperazin-1-yl)-6-propyl-thieno[2,3-d]pyrimidin-4-yl]-3-pentafluoroethyl-5,6,7,8-tetrahydro-[1,2,4]triazolo[4,3-a]pyrazine] yielded an inhibition at 40 µM in assay [1] (Homo sapiens, Platelet, 40 μM compound) of 49%. In addition, at Human P2Y12 receptor (setting [2]), the IC50 stood at 315 nM.

`CCCc1cc2c(N3CCn4c(nnc4C(F)(F)F)C3)nc(COc3cccc(C(=O)O)c3)nc2s1` [Example 4-26, 3-[6-Propyl-4-(3-trifluoromethyl-5,6-dihydro-8H-[1,2,4]triazolo[4,3-a]pyrazin-7-yl)thieno[2,3-d]pyrimidin-2-ylmethoxy]benzoic acid] registered an inhibition constant (Ki) in assay [1] of 2100 nM. At Human P2Y12 receptor (setting [2]), the IC50 amounted to 160 nM.
